Reference: the supplement of paper PMC11208160

Experiment: recombinant barcode read abundance after kanamycin selection (control-corrected) (log10(CPM+1)); higher = more efficient recombination; sequences stand for … in AGTGCAGAGAAAATCGGCCAGTTTTCTCTGCCTGCAGTCCGCATGCCGT…ATTTATGCAGCGGACTGCCTTTCTCCCAAAGTGATAAACCGGACAGTATCATGGACCGGTTTTCCCGGTAATCCGTATTTGCAAGGTTGGTTTCACT; site = the 11-nt target
In short: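 Recombination efficiency in this pooled E. coli screen uses counts per million of barcodes at recombinant junctions, averaged and corrected against the control. The reported form is log10(CPM+1). Two replicates were plated on chloramphenicol/ampicillin LB agar as control and two on chloramphenicol/ampicillin/kanamycin with 0.1 mM IPTG.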

| Sequence | recombinant barcode read abundance (log10) |
| --- | --- |
| ATGTCCCACTGGGTTCTAACCTGTTGCTCAG [ATGTCCCCTGA_LTGcore_AC_RTGcore_CT] (site ATGTCCCCTGA) (LTG core: AC, RTG core: CT) | 0.172 |
| ATGTCCCCATGGGTTCTAACCTGTTGCTCAG [ATGTCCCCTGA_LTGcore_CA_RTGcore_CT] (site ATGTCCCCTGA) (LTG core: CA, RTG core: CT) | 0.527 |
| ATGTCCCCTTGGGTTCTAACCTGTTGCTCTA [ATGTCCCCTGA_LTGcore_CT_RTGcore_TA] (site ATGTCCCCTGA) (LTG core: CT, RTG core: TA) | 0.107 |
| ATGTCCCCTTGGGTTCTAACCTGTTGCTCTC [ATGTCCCCTGA_LTGcore_CT_RTGcore_GA] (site ATGTCCCCTGA) (LTG core: CT, RTG core: GA) | 0.0163 |
| ATGTCCCGCTGGGTTCTAACCTGTTGCTCGC [ATGTCCCCTGA_LTGcore_GC_RTGcore_GC] (site ATGTCCCCTGA) (LTG core: GC, RTG core: GC) | 0.103 |
| ATGTCCCTATGGGTTCTAACCTGTTGCTCAG [ATGTCCCCTGA_LTGcore_TA_RTGcore_CT] (site ATGTCCCCTGA) (LTG core: TA, RTG core: CT) | 0.0463 |
| ATGTCCCTATGGGTTCTAACCTGTTGCTCTA [ATGTCCCCTGA_LTGcore_TA_RTGcore_TA] (site ATGTCCCCTGA) (LTG core: TA, RTG core: TA) | 0.208 |
| ATGTCCCTTTGGGTTCTAACCTGTTGCTCAA [ATGTCCCCTGA_LTGcore_TT_RTGcore_TT] (site ATGTCCCCTGA) (LTG core: TT, RTG core: TT) | 0.0472 |
| CATATTAAGTGGGTTCTAACCTGTTGCCTCT [CATATTACTAG_LTGcore_AG_RTGcore_AG] (site CATATTACTAG) (LTG core: AG, RTG core: AG) | 0.0293 |
| CATATTAATTGGGTTCTAACCTGTTGCCTAG [CATATTACTAG_LTGcore_AT_RTGcore_CT] (site CATATTACTAG) (LTG core: AT, RTG core: CT) | 0.195 |
| CATATTACATGGGTTCTAACCTGTTGCCTAG [CATATTACTAG_LTGcore_CA_RTGcore_CT] (site CATATTACTAG) (LTG core: CA, RTG core: CT) | 0.126 |
| CATATTACTTGGGTTCTAACCTGTTGCCTAC [CATATTACTAG_LTGcore_CT_RTGcore_GT] (site CATATTACTAG) (LTG core: CT, RTG core: GT) | 1.01 |
| CATATTAGATGGGTTCTAACCTGTTGCCTTC [CATATTACTAG_LTGcore_GA_RTGcore_GA] (site CATATTACTAG) (LTG core: GA, RTG core: GA) | 0.0675 |
| CATATTAGCTGGGTTCTAACCTGTTGCCTAG [CATATTACTAG_LTGcore_GC_RTGcore_CT] (site CATATTACTAG) (LTG core: GC, RTG core: CT) | 0.73 |
| CATATTAGGTGGGTTCTAACCTGTTGCCTAG [CATATTACTAG_LTGcore_GG_RTGcore_CT] (site CATATTACTAG) (LTG core: GG, RTG core: CT) | 0.182 |
| CATATTATATGGGTTCTAACCTGTTGCCTTA [CATATTACTAG_LTGcore_TA_RTGcore_TA] (site CATATTACTAG) (LTG core: TA, RTG core: TA) | 0.00689 |
| CGAGCCCACTGGGTTCTAACCTGTTGCTGGT [CGAGCCCCTCA_LTGcore_AC_RTGcore_AC] (site CGAGCCCCTCA) (LTG core: AC, RTG core: AC) | 0.0238 |
| CGAGCCCCGTGGGTTCTAACCTGTTGCTGAG [CGAGCCCCTCA_LTGcore_CG_RTGcore_CT] (site CGAGCCCCTCA) (LTG core: CG, RTG core: CT) | 0.587 |
| CGAGCCCCTTGGGTTCTAACCTGTTGCTGAC [CGAGCCCCTCA_LTGcore_CT_RTGcore_GT] (site CGAGCCCCTCA) (LTG core: CT, RTG core: GT) | 0.19 |
| CGAGCCCCTTGGGTTCTAACCTGTTGCTGCA [CGAGCCCCTCA_LTGcore_CT_RTGcore_TG] (site CGAGCCCCTCA) (LTG core: CT, RTG core: TG) | 0.0283 |
| CGAGCCCCTTGGGTTCTAACCTGTTGCTGGC [CGAGCCCCTCA_LTGcore_CT_RTGcore_GC] (site CGAGCCCCTCA) (LTG core: CT, RTG core: GC) | 0.405 |
| CGAGCCCGCTGGGTTCTAACCTGTTGCTGAG [CGAGCCCCTCA_LTGcore_GC_RTGcore_CT] (site CGAGCCCCTCA) (LTG core: GC, RTG core: CT) | 0.195 |
| CGAGCCCGCTGGGTTCTAACCTGTTGCTGGC [CGAGCCCCTCA_LTGcore_GC_RTGcore_GC] (site CGAGCCCCTCA) (LTG core: GC, RTG core: GC) | 0.0793 |

| Sequence | recombinant barcode read abundance (log10) |
| --- | --- |
| CGAGCCCGTTGGGTTCTAACCTGTTGCTGAG [CGAGCCCCTCA_LTGcore_GT_RTGcore_CT] (site CGAGCCCCTCA) (LTG core: GT, RTG core: CT) | 0.102 |
| CGCGCCCAATGGGTTCTAACCTGTTGCGGTT [CGCGCCCCTCC_LTGcore_AA_RTGcore_AA] (site CGCGCCCCTCC) (LTG core: AA, RTG core: AA) | 0.134 |
| CGCGCCCACTGGGTTCTAACCTGTTGCGGAG [CGCGCCCCTCC_LTGcore_AC_RTGcore_CT] (site CGCGCCCCTCC) (LTG core: AC, RTG core: CT) | 0.0345 |
| CGCGCCCACTGGGTTCTAACCTGTTGCGGGT [CGCGCCCCTCC_LTGcore_AC_RTGcore_AC] (site CGCGCCCCTCC) (LTG core: AC, RTG core: AC) | 0.0786 |
| CGCGCCCCCTGGGTTCTAACCTGTTGCGGAG [CGCGCCCCTCC_LTGcore_CC_RTGcore_CT] (site CGCGCCCCTCC) (LTG core: CC, RTG core: CT) | 0.158 |
| CGCGCCCCTTGGGTTCTAACCTGTTGCGGAC [CGCGCCCCTCC_LTGcore_CT_RTGcore_GT] (site CGCGCCCCTCC) (LTG core: CT, RTG core: GT) | 0.0615 |
| CGCGCCCCTTGGGTTCTAACCTGTTGCGGAT [CGCGCCCCTCC_LTGcore_CT_RTGcore_AT] (site CGCGCCCCTCC) (LTG core: CT, RTG core: AT) | 0.243 |
| CGCGCCCCTTGGGTTCTAACCTGTTGCGGCG [CGCGCCCCTCC_LTGcore_CT_RTGcore_CG] (site CGCGCCCCTCC) (LTG core: CT, RTG core: CG) | 0.0742 |
| CGCGCCCCTTGGGTTCTAACCTGTTGCGGGT [CGCGCCCCTCC_LTGcore_CT_RTGcore_AC] (site CGCGCCCCTCC) (LTG core: CT, RTG core: AC) | 0.266 |
| CGCGCCCCTTGGGTTCTAACCTGTTGCGGTT [CGCGCCCCTCC_LTGcore_CT_RTGcore_AA] (site CGCGCCCCTCC) (LTG core: CT, RTG core: AA) | 0.146 |
| CGCGCCCGATGGGTTCTAACCTGTTGCGGAG [CGCGCCCCTCC_LTGcore_GA_RTGcore_CT] (site CGCGCCCCTCC) (LTG core: GA, RTG core: CT) | 0.217 |
| CGCGCCCGCTGGGTTCTAACCTGTTGCGGGC [CGCGCCCCTCC_LTGcore_GC_RTGcore_GC] (site CGCGCCCCTCC) (LTG core: GC, RTG core: GC) | 0.552 |
| CGCGCCCGTTGGGTTCTAACCTGTTGCGGAG [CGCGCCCCTCC_LTGcore_GT_RTGcore_CT] (site CGCGCCCCTCC) (LTG core: GT, RTG core: CT) | 0.062 |
| CGGTCCCCATGGGTTCTAACCTGTTGCCATG [CGGTCCCCTTG_LTGcore_CA_RTGcore_CA] (site CGGTCCCCTTG) (LTG core: CA, RTG core: CA) | 0.185 |
| CGGTCCCCGTGGGTTCTAACCTGTTGCCACG [CGGTCCCCTTG_LTGcore_CG_RTGcore_CG] (site CGGTCCCCTTG) (LTG core: CG, RTG core: CG) | 0.342 |
| CGGTCCCCTTGGGTTCTAACCTGTTGCCAAA [CGGTCCCCTTG_LTGcore_CT_RTGcore_TT] (site CGGTCCCCTTG) (LTG core: CT, RTG core: TT) | 0.0341 |
| CGGTCCCCTTGGGTTCTAACCTGTTGCCAAG [CGGTCCCCTTG_LTGcore_CT_RTGcore_CT] (site CGGTCCCCTTG) (LTG core: CT, RTG core: CT) | 1.32 |
| CGGTCCCCTTGGGTTCTAACCTGTTGCCACA [CGGTCCCCTTG_LTGcore_CT_RTGcore_TG] (site CGGTCCCCTTG) (LTG core: CT, RTG core: TG) | 0.0539 |
| CGGTCCCCTTGGGTTCTAACCTGTTGCCACG [CGGTCCCCTTG_LTGcore_CT_RTGcore_CG] (site CGGTCCCCTTG) (LTG core: CT, RTG core: CG) | 0.0795 |
| CGGTCCCCTTGGGTTCTAACCTGTTGCCAGC [CGGTCCCCTTG_LTGcore_CT_RTGcore_GC] (site CGGTCCCCTTG) (LTG core: CT, RTG core: GC) | 0.178 |
| CGGTCCCCTTGGGTTCTAACCTGTTGCCATA [CGGTCCCCTTG_LTGcore_CT_RTGcore_TA] (site CGGTCCCCTTG) (LTG core: CT, RTG core: TA) | 0.222 |
| CGGTCCCCTTGGGTTCTAACCTGTTGCCATC [CGGTCCCCTTG_LTGcore_CT_RTGcore_GA] (site CGGTCCCCTTG) (LTG core: CT, RTG core: GA) | 0.208 |
